Where “and” joins values, the source holds several entries; their conditions need not be identical. Equal entries are not always repeated. Where two headings read alike, the source gives them in different places. Where only a bound is given, the exact number is not on record here.

Experiment [1] has as its target T1, PPAR delta (Homo sapiens, UniProt Q03181).
T1 sequence (Q03181 211-441 limits assumed): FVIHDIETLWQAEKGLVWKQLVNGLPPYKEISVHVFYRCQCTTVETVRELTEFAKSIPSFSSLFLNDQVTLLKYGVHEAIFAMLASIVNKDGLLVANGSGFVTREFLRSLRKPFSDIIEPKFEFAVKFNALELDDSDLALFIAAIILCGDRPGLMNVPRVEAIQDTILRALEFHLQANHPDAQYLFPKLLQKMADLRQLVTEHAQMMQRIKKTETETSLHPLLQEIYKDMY
The experiment is described as follows: Transfection assay for PPAR receptors (PPAR-Gal4 / Gal4-Luciferase reporter in HEK293 cells). Type of experiment: cell-based. Conditions: multiple values = multiple measurements. As to the method:
Transfection Assay Method for PPAR Receptors
HEK293 cells were grown in DMEM/F-12 Media supplemented with 10% FBS and glutamine (GIBCOBRL). The cells were co-transfected with DNA for PPAR-Gal4 (PPARα, γ or δ) receptor and Gal4-Luciferase Reporter using the DMRIE-C Reagent. On the following day, the medium was replaced with 5% Charcoal treated FBS growth medium. After six hours, cells were trypsinized and seeded at a density of 50,000 cell/well into 96 well plates and incubated overnight at 37° C. in a 5% CO2 incubator. Cells were then treated with test compounds or vehicle and incubated for 24 hours at 37° C. in a 5% CO2 incubator. Luciferase activity was assayed using the Steady-Glo Luciferase Assay Kit from Promega. […] Steady-Glo Luciferase Assay Kit was purchased from Promega Part# E254B.
In general terms: Reporter assays use an easily measured gene product as a stand-in for the process of interest.

For experiment [2], the system named is differentiated THP-1 monocytes. To be noted: cited from earlier work.
Where [3] appears, read: HEK293 cells co-transfected with PPAR-Gal4 receptor and Gal4-Luciferase reporter, 24 hours, read-out: EC50 (PPAR delta).
Where [4] appears, read: value printed in running text after characterisation data, read-out: PPARdleta EC50.

With `C=C(COc1ccccc1)CSc1ccc(OCC(=O)O)c(C)c1` [Compound 3, [2-Methyl-4-(2-phenoxymethyl-allylsulfanyl)-phenoxy]-acetic acid], the EC50 in experiment [1] (setting [3]) amounted to 711 nM. Still for that read-out and setting: the figure for `C=C(COc1ccc(OC(F)(F)F)cc1)CSc1ccc(OCC(=O)O)c(C)c1` [Compound 4, {2-Methyl-4-[2-(4-trifluoromethoxy-phenoxymethyl)-allylsulfanyl]-phenoxy}-acetic acid] is 29 nM and 27.8 nM. On to `C=C(COc1ccc(Cl)cc1)CSc1ccc(OCC(=O)O)c(C)c1` [Compound 5, {4-[2-(4-Chloro-phenoxymethyl)-allylsulfanyl]-2-methyl-phenoxy}-acetic acid], for which the EC50 in experiment [1] (setting [3]) was 79.2 nM and 51.8 nM.

On to `C=C(COc1ccc(Cl)c(Cl)c1)CSc1ccc(OCC(=O)O)c(C)c1` [Compound 6, {4-[2-(3,4-Dichloro-phenoxymethyl)-allylsulfanyl]-2-methyl-phenoxy}-acetic acid], for which, in experiment [1] (setting [3]), the EC50 was 56.6 nM and 42.9 nM. Turning to `C=C(COc1ccc(Cl)cc1Cl)CSc1ccc(OCC(=O)O)c(C)c1` [Compound 7, {4-[2-(2,4-Dichloro-phenoxymethyl)-allylsulfanyl]-2-methyl-phenoxy}-acetic acid], the EC50 in experiment [1] (setting [3]) was 138 nM. The same measure, in the same setting: as for `C=C(COc1ccc(OC)cc1)CSc1ccc(OCC(=O)O)c(C)c1` [Compound 9, {4-[2-(4-Methoxy-phenoxymethyl)-allylsulfanyl]-2-methyl-phenoxy}-acetic acid], the figure is 216 nM.

As to `C=C(COc1ccc(N(C)C)cc1)CSc1ccc(OCC(=O)O)c(C)c1` [Compound 10, {4-[2-(4-Dimethylamino-phenoxymethyl)-allylsulfanyl]-2-methyl-phenoxy}-acetic acid], in experiment [1] (setting [3]), the EC50 amounted to 238 nM. For the compound `C=C(COc1ccc(C(F)(F)F)cc1)CSc1ccc(OCC(=O)O)c(Cl)c1` [Compound 11, {2-Chloro-4-[2-(4-trifluoromethyl-phenoxymethyl)-allylsulfanyl]-phenoxy}-acetic acid], the EC50 in experiment [1] (setting [3]) was 45.1 nM and 48.3 nM.

In the case of `CC(C)=C(COc1ccc(C(F)(F)F)cc1)CSc1ccc(OCC(=O)O)c(C)c1` [Compound 15, {2-Methyl-4-[3-methyl-2-(4-trifluoromethyl-phenoxymethyl)-but-2-enylsulfanyl]-phenoxy}-acetic acid], the EC50 in experiment [1] (setting [3]) is 22.7 nM and 22.1 nM.

As to `Cc1cc(SCC(COc2ccc(C(F)(F)F)cc2)=C(F)F)ccc1OCC(=O)O` [Compound 16, {4-[3,3-Difluoro-2-(4-trifluoromethyl-phenoxymethyl)-allylsulfanyl]-2-methyl-phenoxy}-acetic acid], in experiment [1] (setting [3]), the EC50 is 87.8 nM and 51.4 nM.

Consider `Cc1cc(SCC(=CC#N)COc2ccc(C(F)(F)F)cc2)ccc1OCC(=O)O` [Compound 17, {4-[3-Cyano-2-(4-trifluoromethyl-phenoxymethyl)-allylsulfanyl]-2-methyl-phenoxy}-acetic acid], for which the EC50 in experiment [1] (setting [3]) is 32.1 nM and 38.7 nM. As to `Cc1cc(SCC(=Cc2cccc3ccccc23)COc2ccc(C(F)(F)F)cc2)ccc1OCC(=O)O` [Compound 19, {2-Methyl-4-[3-naphthalen-1-yl-2-(4-trifluoromethyl-phenoxymethyl)-allylsulfanyl]-phenoxy}-acetic acid], the EC50 in experiment [1] (setting [3]) is 67.7 nM and 49.7 nM. The same measure, in the same setting: the figure for `C=C(CCSc1ccc(OCC(=O)O)c(C)c1)Oc1ccc(C(F)(F)F)cc1` [Compound 20, {2-Methyl-4-[3-(4-trifluoromethyl-phenoxy)-but-3-enylsulfanyl]phenoxy}-acetic acid] is 194 nM.

Consider `C=C(CSc1ccc(OCC(=O)O)c(C)c1)Oc1ccc(C(F)(F)F)cc1` [Compound 21, {2-Methyl-4-[2-(4-trifluoromethyl-phenoxy)-allylsulfanyl]-phenoxy}-acetic acid], for which, in experiment [1] (setting [3]), the EC50 is over 1000 nM.

Take `C=C(COc1ccc(C(F)(F)F)cc1)CSc1ccc(CC(=O)O)cc1Cl` [Compound 22, {3-Chloro-4-[2-(4-trifluoromethyl-phenoxymethyl)-allylsulfanyl]-phenyl}-acetic acid]: the EC50 in experiment [1] (setting [3]) is 28.9 nM and 68.3 nM. Still for that read-out and setting: the figure for `CCCC(CCC)(COc1ccc(C(F)(F)F)cc1)CSc1ccc(OCC(=O)O)c(C)c1` [Compound 24, {2-Methyl-4-[2-propyl-2-(4-trifluoromethyl-phenoxymethyl)-pentylsulfanyl]phenoxy}-acetic acid] is 9.7 nM and 7.4 nM; for `Cc1cc(SCC(F)(F)COc2ccc(C(F)(F)F)cc2)ccc1OCC(=O)O` [Compound 25, {4-[2,2-Difluoro-3-(4-trifluoromethyl-phenoxy)-propylsulfanyl]-2-methyl-phenoxy}-acetic acid] it is 147 nM. Still for that read-out and setting: the figure for `Cc1cc(SCC2(COc3ccc(C(F)(F)F)cc3)COC(C)(C)O2)ccc1OCC(=O)O` (centres unmarked) [Compound 27, {4-[2,2-Dimethyl-4-(4-trifluoromethyl-phenoxymethyl)-[1,3]dioxolan-4-ylmethylsulfanyl]-2-methyl-phenoxy}-acetic acid] is 119 nM; for `CCC(O)(COc1ccc(C(F)(F)F)cc1)CSc1ccc(OCC(=O)O)c(C)c1` (centres unmarked) [Compound 28, {4-[2-Hydroxy-2-(4-trifluoromethyl-phenoxymethyl)butylsulfanyl]-2-methyl-phenoxy}-acetic acid] it is 122 nM. On to `C=C(COc1ccc(C(F)(F)F)cc1)COc1ccc(OCC(=O)O)c(C)c1` [Compound 29], for which the EC50 in experiment [1] (setting [3]) was found to be 249 nM.

Turning to `Cc1cc(SCc2sc(-c3ccc(C(F)(F)F)cc3)nc2C)ccc1OCC(=O)O` [GW501516], in experiment [2], the “ABCA1 mRNA expression” value is recorded as “induced ABCA1 mRNA expression” and the cholesterol efflux entry is given as “enhanced cholesterol efflux”. `C=C(COc1ccc(C(F)(F)F)cc1)C[S+]([O-])c1ccc(OCC(=O)O)c(C)c1` (centres unmarked) [[2-methyl-4-[[2-[[4-(trifluoromethyl)phenoxy]methyl]-2-propenyl]sulfinyl]phenoxy]-acetic acid]: the EC50 in experiment [1] (setting [4]) was over 3000 nM. Regarding `C=C(COc1ccc(C(F)(F)F)cn1)CSc1ccc(OCC(=O)O)c(C)c1` [[2-methyl-4-[[2-[[[5-(trifluoromethyl)-2-pyridinyl]oxy]methyl]-2-propenyl]thio]phenoxy]-acetic acid], the EC50 in experiment [1] (setting [4]) is over 3000 nM. Turning to `C=C(COc1ccc(C(F)(F)F)cc1)CSc1ccc(Cl)cc1OCC(=O)O` [[5-chloro-2-[[2-[[4-(trifluoromethyl)phenoxy]methyl]-2-propenyl]thio]phenoxy]-acetic acid], in experiment [1] (setting [4]), the EC50 is over 3000 nM. `C=C(COc1ccc(C(C)=O)c(O)c1CCC)CSc1ccc(OCC(=O)O)c(C)c1` [{4-[2-(4-acetyl-3-hydroxy-2-propyl-phenoxymethyl)-allylsulfanyl]-2-methyl-phenoxy}-acetic acid]: in experiment [1] (setting [4]), the EC50 was 13 nM and 18 nM.

The record behind these values is patent publication US8258177B2, “4-((phenoxyalkyl)thio)-phenoxyacetic acids and analogs” (Janssen Pharmaceutica, N.V., priority 2003, dated 2012).
